Results: patent US20150057180A1, “Methods and Kits for Analyzing Biomarkers in a Signal Transduction Pathway” (BioScale, Inc., priority 2012, published 2015)
“Also recorded” adds a separate entry of the source.

How the values were obtained:
pJNK [1] = test: AMMP pJNK assay, A431 cells
Method: (§1) TPER was supplemented with phosphatase and protease inhibitors (ThermoFisher/Pierce) as described by the manufacturer. The cells were lysed by pipetting the TPER on the adhesion cell layer, or onto the cell pellet in the case of Jurkat cells. Cell lysates were collected into conical tubes, placed on ice, and vortexed every 5 minutes for a total of 20 minutes before aliquoting and freezing on dry ice. A standard BCA protein assay was used to determine total protein concentration of the lysates.
(§2) AMMP Assay Design: These studies were designed using AMMP® (Acoustic Membrane Microparticle Assay) as run on the ViBE® workstation (BioScale). Assays were constructed so that strepavidin coated magnetic microparticles were loaded with analyte-specific biotinylated antibody and the solution phase sandwich partner antibody was conjugated with fluorescein. The complex of bead-analyte and fluorescien-labeled antibody was detected by the anti-fluorescein antibody-coated acoustic membrane of the VIBE.
(§3) Assay Set-Up: Cell lysates were thawed on ice then centrifuged at 14,000 RPM. Forty microliters of diluted cell lysates were pipetted in to the appropriate well of each plate with forty microliters of sample diluent. Also to each well, a total of forty microliters of a mixture of 1.5×10^5 magnetic beads and 200 ng/ml of fluorescein labeled detector antibody were added. Separate wells were loaded with beads and lysates alone to serve as negative controls. The plates were loaded on the VIBE workstation (BioScale Inc., Lexington, Mass.) and incubated for 4 hours prior to analysis.

pp38 [2] = test: AMMP pp38 assay, MCF-7 cells
Method: as §1, §2
(§4) Assay Set-Up: Cell lysates were thawed on ice then centrifuged at 14,000 RPM. Forty microliters of diluted cell lysates were pipetted in to the appropriate well of each plate with forty microliters of sample diluent. Also to each well, a total of forty microliters of a mixture of 1.5×10^5 magnetic beads and 200 ng/ml of fluorescein labeled detector antibody were added. […]

pERK1/2 [3] = test: AMMP pERK1/2 assay, A431 cells
Excerpt: as §2, §3

pERK1/2 [4] = test: AMMP pERK1/2 assay, MCF-7 cells; conditions: for EGF stimulated phosphorylation of ERK1/2: inhibitor (Afatinib 13 nM, Gefitinib 37 nM or Neratinib 92 nM) 2 hours prior to EGF 100 ng/ml 10 minutes
Excerpt: as §2, §3

pMEK1 [5] = test: AMMP pMEK1 assay, MCF-7 cells
Excerpt: as §2, §3

pAKT1 [6] = test: AMMP pAKT1 assay, A431 cells; conditions: inhibitor (Neratinib 92 nM) 2 hours prior to EGF 100 ng/ml 10 minutes
Method: as §1, §2, §4

pMEK1 [7] = test: AMMP pMEK1 assay, A431 cells
Excerpt: as §2, §3

pHER3 [8] = test: AMMP pHER3 assay, MCF-7 cells
Method: as §1, §2, §3

pp38 [9] = test: AMMP pp38 assay, A431 cells
Method: as §1, §2, §4

pHER3 [10] = test: AMMP pHER3 assay, A431 cells; conditions: for EGF stimulated phosphorylation of HER3: inhibitor (Afatinib 13 nM, Gefitinib 37 nM or Neratinib 92 nM) 2 hours prior to EGF 100 ng/ml 10 minutes
Excerpt: as §2, §3

pAKT1 [11] = test: AMMP pAKT1 assay, MCF-7 cells
Method: as §1, §2, §4

phosphorylated p38 = test: AMMP phospho-p38 assay, A431 cell lysates (Example 5); type: cell-based, human; conditions: EGF-stimulated A431 cells compared to unstimulated A431 cells (FIG. 38)
Method: For the sample preparation from A431 cells, the following methods were used. Human epidermoid carcinoma cells A431 (American Type Culture Collection (ATCC), Manassas, Va.; ATCC Catalog No. CRL-1555) were grown to approximately 80% confluence in T75 flasks according to standard cell culture techniques. […] Negative control cells were incubated with serum free medium without stimulant, also for 10 minutes.
Additional scraping was required to release the cells from the plastic. The resulting cell suspension was incubated for approximately 15 minutes on ice with vortexing every five minutes for effective cell lysis. Phosphatase and protease inhibitors (HALT, Thermo Fisher (Pierce)) were included in the detergent cell treatment preparation. Cell lysates were aliquoted and snap frozen on dry ice, and then transferred to a −80° C. freezer until analysis. […]
Cell lysate samples were prepared for the assays by thawing them on ice then clarifying by centrifugation in a microcentrifuge at 14,000 RPM for 10 minutes. […] Negative controls containing the bead only with the samples (no fluoresceinated antibody) were run and the ViBE response was subtracted from the sample signal readings to determine the specific assay signal.

pJNK [12] = test: AMMP pJNK assay, MCF-7 cells; type: cell-based, human; conditions: EGF 100 ng/ml for 10 minutes vs no treatment
Method: as §1, §2, §4

[13] = inhibitor (Neratinib 92 nM) 2 hours prior to EGF 100 ng/ml 10 minutes
[14] = inhibitor (Afatinib 13 nM, Gefitinib 37 nM or Neratinib 92 nM) 2 hours prior to EGF 100 ng/ml 10 minutes, listed as neratinib
[15] = EGF 100 ng/ml for 10 minutes vs no treatment

With `CCOc1cc2ncc(C#N)c(Nc3ccc(OCc4ccccn4)c(Cl)c3)c2cc1NC(=O)/C=C/CN(C)C` [Neratinib] the “EGF stimulated phosphorylation of JNK” value (pJNK [1]; [13]) was “largely unaffected”, the “EGF stimulated phosphorylation of p38” value (pp38 [2]; [13]) was “slight loss in phosphorylation” and the “EGF stimulated phosphorylation of ERK1/2” value (pERK1/2 [3]; [14]) was “no such effect; also recorded: much less than expected”. The “EGF stimulated phosphorylation of ERK1/2” value (pERK1/2 [4]) was “inhibitory effects”, the “EGF stimulated phosphorylation of MEK1” value (pMEK1 [5]; [13]) was “inhibitory effects; also recorded: partially inhibited” and the “EGF stimulated phosphorylation of AKT1” value (pAKT1 [6]) was “largely unaffected”. For the same molecule, the “EGF stimulated phosphorylation of MEK1” value (pMEK1 [7]; [14]) was “no such effect; also recorded: much less than expected”, the “EGF stimulated phosphorylation of HER3” value (pHER3 [8]; [13]) was “only partially inhibited” and the “EGF stimulated phosphorylation of p38” value (pp38 [9]; inhibitor (Afatinib 13 nM, Gefitinib 37 nM or Neratinib 92 nM) 2 hours prior to EGF 100 ng/ml 10 minutes) was “largely unaffected”. For the same molecule, the “EGF stimulated phosphorylation of HER3” value (pHER3 [10]) was “largely inhibit”, the “EGF stimulated phosphorylation of HER3” value (pHER3 [10]; listed as neratinib) was “highly effective” and the “EGF stimulated phosphorylation of AKT1” value (pAKT1 [11]; [13]) was “slight loss in phosphorylation”.
With `COc1cc2ncnc(Nc3ccc(F)c(Cl)c3)c2cc1OCCCN1CCOCC1` [gefitinib, Gefitinib] the “EGF stimulated phosphorylation of ERK1/2” value (pERK1/2 [4]) was “inhibited”.
In the case of epidermal growth factor [EGF], the “phosphorylation of JNK on EGF stimulation” value (pJNK [1]; [15]) is reported as “no change in JNK; also recorded: No phosphorylation of JNK”, the “phosphorylation of p38 on EGF stimulation” value (pp38 [2]; [15]) is reported as “moderate phosphorylation of p38” and the “phosphorylation of ERK1/2 on EGF stimulation” value (pERK1/2 [3]; [15]) is reported as “predominated the signaling pathway; also recorded: easily detected; also recorded: led to phosphorylation”. For the same molecule, the “amount of phospho-p38” value (phosphorylated p38) was “dramatic increase”, the “phosphorylation of ERK1/2 on EGF stimulation” value (pERK1/2 [4]; [15]) was “detected phosphorylation of ERK1/2; also recorded: detected to a lesser degree; also recorded: resulted in phosphorylation” and the “phosphorylation of JNK on EGF stimulation” value (pJNK [12]) was “no change in JNK; also recorded: No phosphorylation of JNK”. For the same molecule, the “phosphorylation of MEK1 on EGF stimulation” value (pMEK1 [5]; [15]) was “modest phosphorylation of MEK1; also recorded: resulted in phosphorylation”, the “phosphorylation of MEK1 on EGF stimulation” value (pMEK1 [7]; [15]) was “Strong phosphorylation of MEK1; also recorded: led to phosphorylation” and the “phosphorylation of HER3 on EGF stimulation” value (pHER3 [8]; [15]) was “little phosphorylation was observed; also recorded: resulted in phosphorylation”. The “phosphorylation of p38 on EGF stimulation” value (pp38 [9]; [15]) was “led to phosphorylation”, the “phosphorylation of HER3 on EGF stimulation” value (pHER3 [10]; [15]) was “increased with EGF stimulation; also recorded: high even in non-treated A431 cells” and the “phosphorylation of AKT1 on EGF stimulation” value (pAKT1 [11]; [15]) was “small amount of AKT1 phosphorylation”.
